Tested on: HCC1428 tumors
Experiment: Cell line derived xenograft (CDX) study with HCC1428 tumors
Type: in vivo, BALB/c nude mice
Settings: 45 mg/kg QD p.o.; for TGI value: versus vehicle group
Protocol: For this xenograft, supplemental estradiol benzoate injections (40 μg/20 μl/mouse) are administered subcutaneously twice a week to BALB/c nude mice, starting one week prior to cell implantation and continuing through to the end of study. After implantation, HCC1428 tumor were allocated to treatment arms once a median tumor volume of about 181 mm^3 was reached. In Table 3A the abbreviation “p.o.” refers to oral administration and the abbreviation “QD×28” refers to administration once a day for 28 days.
Tumors were measured and mice were weighed twice a week during the experimental period. The tumor volume (mm3) was estimated using the formula: TV=a×b2/2, where “a” and “b” were the long and the short diameter of a tumor, respectively. The Tumor volumes were used to calculate tumor growth inhibition (TGI, an indicator of antitumor activity) using the formula: TGI %: (1−{T/T0/Ct/C0}/1−{C0/Ct})×100 where Tt=median tumor volume of treated at time t, T0=median tumor volume of treated at time 0, Ct=median tumor volume of control at time t and C0=median tumor volume of control at time 0.
For this xenograft, supplemental estradiol benzoate injections (40 μg/20 μl/mouse) are administered subcutaneously twice a week to BALB/c nude mice, starting one week prior to cell implantation and continuing through to the end of study. After implantation, HCC1428 tumor were allocated to treatment arms once a median tumor volume of about 181 mm^3 was reached. In Table 4A the abbreviation “p.o.” refers to oral administration and the abbreviation “QD×28” refers to administration once a day for 28 days.
Tumors were measured and mice were weighed twice a week during the experimental period. The tumor volume (mm^3) was estimated using the formula: TV=a×b2/2, where “a” and “b” were the long and the short diameter of a tumor, respectively. The Tumor volumes were used to calculate tumor growth inhibition (TGI, an indicator of antitumor activity) using the formula: TGI %: (1−{T/T0/Ct/C0}/1−{C0/Ct})×100 where Tt=median tumor volume of treated at time t, T0=median tumor volume of treated at time 0, Ct=median tumor volume of control at time t and C0=median tumor volume of control at time 0. […] At 100 mg/kg QD the mean tumor volume achieved was 116 mm3, on Day 71. The tumor growth inhibition (TGI) of these treatments compared with vehicle group on Day 28 or 71 of the treatment is summarized in Table 4B (See FIG. 3).

`NC(=O)c1cccc2cn(-c3ccc([C@@H]4CCCNC4)cc3)nc12` [niraparib, reference compound] was tested, and the mean tumor volume (Compound A study) was 230 mm^3, the TGI value (Compound A study) was 75.2% and the mean tumor volume (Compound B study) was 230 mm^3. For the same compound, the TGI value (Compound B study) was 75.2%.

From patent US20260216174A1, “TREATMENT OF ER+ BREAST CANCER COMPRISING HOMOLOGOUS RECOMBINATION DEFICIENCY USING PARG INHIBITOR” (IDEAYA BIOSCIENCES, INC., priority 2023, published 2026)
